From PMC11396746, “Stability Evaluation and Pharmacokinetic Profiling of Vepdegestrant in Rodents Using Liquid Chromatography–Tandem Mass Spectrometry” (Molecules, 2024)
Where two headings read alike, the source gives them in different places.

Key:
[1] = Plasma stability at 4, 25 and 37 °C; format: in vitro ADME; conditions: mouse and rat plasma at 4, 25 and 37 °C, 4 h incubation, 0.1 µg/mL
Procedure: Plasma stability of vepdegestrant was investigated in mouse and rat plasma. Vepdegestrant (10 µL) was added to blank mouse or rat plasma (490 µL) to prepare a final concentration of 0.1 µg/mL. The mixtures were incubated at 4, 25, and 37 °C. After 0, 1, and 4 h of incubation, aliquots (50 µL) were added to microtubes containing ice-cold ACN solution with an IS (200 µL) to terminate the reaction. The mixture was vortexed thoroughly for 10 min and centrifuged at 17,054 g under 25 °C for 10 min. Subsequently, the supernatant (100 µL) was taken, and 5 µL was injected for HPLC-MS/MS analysis.

[2] = Pharmacokinetic study in male SD rats; format: in vivo; conditions: rat
Procedure: Twelve healthy male ICR mice (6 weeks old, 27.5–30.5 g) and 10 healthy male Sprague–Dawley (SD) rats (7 weeks old, 195.5–212.0 g) were acquired from Orient Bio Inc. (Seongnam, Republic of Korea) and used for PK studies. The animals were kept in rooms in a temperature range of 20–25 °C, humidity of 40–60%, and a 12-h light/dark cycle. Before the experiment, mice were fasted for 4 h, whereas rats were fasted for 14 h, with only water provided during the fasting period. After 4 h of drug administration, animals were provided with free access to food and water. All animal experiments were approved by the Institutional Animal Care and Use Committee of the Chungnam National University (202310A-CNU-178; Daejeon, Republic of Korea).
For the PK studies in rats, a vepdegestrant dosing solution was prepared using a combination of DMSO, PEG 400, cremophor EL, and saline (5:40:2.5:52.5, v/v/v/v). The dosages were set at 2 and 5 mg/kg for IV and PO, respectively, consistent with mouse PK studies. The dose volumes were 2 and 5 mL/kg IV and PO, respectively. Blood samples (100 µL) were collected from the jugular vein using heparinized syringes at 0.08 (IV only), 0.25, 0.5, 1, 2, 4, 8, and 24 h post vepdegestrant administration. Blood samples were immediately centrifuged at 12,032 g under 25 °C for 5 min, and plasma aliquots (20 μL) were stored at −20 °C until HPLC-MS/MS analysis.
The collected plasma samples from mice or rats (20 µL) were added with IS (20 µL) and ACN (160 µL). Subsequently, the mixture was vigorously mixed for 10 min and centrifuged at 17,054× g under 25 °C for 10 min. An aliquot of the supernatant (100 μL) was taken, and a volume of 5 μL was injected for HPLC-MS/MS analysis. PK parameters were calculated using Phoenix® 8.3 software (Certara L.P., Princeton, NJ, USA), as described previously.

[3] = Adsorption investigation after pH stability test (microtube emptied, ACN added, vepdegestrant recovered); format: physicochemical
Procedure: The half-lives of vepdegestrant at pH values of 2, 4, 6, 7.4, 8, and 10 were 7.35, 0.77, 0.40, 0.50, 0.38, and 0.60 h, respectively. Sun et al. reported that the thalidomide ligand, a cereblon-targeting moiety of PROTAC, was rapidly degraded in phosphate-buffered saline (PBS; pH 7.4). The binder in vepdegestrant contained lenalidomide, a CRBN ligand with a chemical structure similar to that of thalidomide. In addition, Chen et al. reported that the glutarimide ring of lenalidomide is cleaved and degraded through non-enzymatic hydrolysis in aqueous solutions and hepatocytes at physiological pH [24]. However, this instability might be attributed to the adsorption of vepdegestrant onto the surfaces of experimental containers such as microtubes. A high proportion of organic solvent can prevent vepdegestrant from binding to the sample vial surface, and the possibility of adsorption exists because a buffer solution was used in this study. To investigate adsorption, after the pH stability test was completed, the incubation mixture was completely emptied, and ACN was added and thoroughly mixed. LC-MS/MS analysis includes MRM transitions for the expected hydrolysis product i.e., m/z 742.3 → 356.3, to detect the presence of degradation products. […] In contrast, hydrolysis may play a significant role at pH 10. Based on these findings, future studies should consider the selection of container materials and the use of organic solvents to minimize vepdegestrant adsorption.

[4] = Metabolic stability in rat liver microsomes; format: in vitro ADME
Procedure: The metabolic stability of vepdegestrant was evaluated using liver microsomes obtained from mice, rats, dogs, and humans. Vepdegestrant was dissolved in DMSO to prepare a stock solution with a concentration of 0.1 mM. Microsomes (25 µL) were spiked into PBS (440 µL) and pre-incubated for 5 min. After pre-incubation, vepdegestrant stock solution (5 µL) was added, followed by an NADPH regenerating system (27 µL) to initiate the reaction. The composition of the reaction mixture was as follows: Vepdegestrant (final concentration 1 µM), mouse, rat, dog, human liver microsomes (protein concentration: 1 mg/mL), NADPH regenerating system (final concentrations: 1.3 mM NADP^+, 3.3 mM glucose-6-phosphate, 0.4 U/mL glucose-6-phosphate dehydrogenase, and 3.3 mM magnesium chloride), and PBS (pH 7.4). At 5, 15, 30, and 60 min after starting the reaction, aliquots (50 µL) were taken and added to ice-cold ACN with an IS (200 µL) to terminate the reaction. For the zero-time samples, aliquots were taken before adding NADPH. Subsequently, the mixture was vigorously mixed for 10 min and centrifuged at 17,054 g under 25 °C for 10 min. For analysis, 5 µL of the supernatant was injected into the HPLC-MS/MS system. In addition, the stability of vepdegestrant in rat liver microsomes was assessed in the absence of NADPH or NADPH and microsomes (PBS only). The experimental procedure was the same as described for the microsomal stability test, except that an equivalent volume of PBS was added instead of NADPH or microsomes.

[5] = male, Sprague-Dawley, plasma, IV 2 mg/kg
[6] = male, Sprague-Dawley, plasma, PO 5 mg/kg

## O=C1CC[C@H](N2Cc3cc(N4CCN(CC5CCN(c6ccc([C@@H]7c8ccc(O)cc8CC[C@@H]7c7ccccc7)cc6)CC5)CC4)ccc3C2=O)C(=O)N1 [vepdegestrant, Vepdegestrant]
[1]
  vepdegestrant remaining in plasma: 86.3–113.5%
[2]; [5]
  Cmax: 850 ± 95 ng/mL
  MRT: 4.14 ± 0.348 h
  Tmax: 0.083 h
  clearance: 17.6 mL/min/kg
  half-life: 3.97 ± 0.284 h
[2]; [6]
  Cmax: 108 ± 38 ng/mL
  MRT: 6.54 ± 0.965 h
  Tmax: 3.2 ± 2.95 h
  half-life: 4.07 ± 0.418 h
[2]; male, Sprague-Dawley, plasma, PO 5 mg/kg vs IV 2 mg/kg, read-out: BA (oral bioavailability)
  bioavailability: 24.1 ± 9.39%
[2]; male, Sprague-Dawley, plasma, intravenous, 2 mg/kg, read-out: volume of distribution
  Vd: > 1 L/kg
[2]; male, Sprague-Dawley, plasma, iv, 2 mg/kg, IV 2 mg/kg, read-out: Vss
  Vd: 4.43 ± 0.3 L/kg
[2]; IV 2 mg/kg
  AUCinf: 1900 ± 90 ng·h/mL
  AUClast: 1880 ± 84 ng·h/mL
[2]; IV 2 mg/kg, 2 mg/kg
  Vss: 4.354 ± 0.3 L/kg
[2]; PO 5 mg/kg
  AUCinf: 1150 ± 446 ng·h/mL
  AUClast: 1120 ± 428 ng·h/mL
[2]; liver blood flow 3.3 L/h/kg
  clearance as % of liver blood flow: approximately 31.9%
[3]; pH 2, after pH stability test
  recovered vepdegestrant percentage (adsorbed to microtube, recovered with ACN): 21.8%
[3]; pH 4, after pH stability test
  recovered vepdegestrant percentage (adsorbed to microtube, recovered with ACN): 108.9%
[3]; pH 6, after pH stability test
  recovered vepdegestrant percentage (adsorbed to microtube, recovered with ACN): 105.1%
[3]; pH 7.4, after pH stability test
  recovered vepdegestrant percentage (adsorbed to microtube, recovered with ACN): 72.6%
[3]; pH 8, after pH stability test
  recovered vepdegestrant percentage (adsorbed to microtube, recovered with ACN): 63.9%
[3]; pH 10, after pH stability test
  recovered vepdegestrant percentage (adsorbed to microtube, recovered with ACN): 27.7%
[4]; Sprague-Dawley, liver microsomes, pH 7.4, rat microsomes, 1 μM
  half-life at 1 µM: 0.615 h
[4]; rat microsomes in the absence of NADPH, 1 h incubation
  vepdegestrant remaining: 86.6%
[4]; rat microsomes, 60 min, 1 μM, with NADPH
  remaining percentage of unconverted vepdegestrant: 32.2%
